molecular target: T1, gastrin (CCK2) receptors (Rattus norvegicus, UniProt P30553); experiment: gastrin (CCK2) antagonist activity in an immature rat stomach assay; settings: pentagastrin dose-response curves, acid secretion, read-out: pKB rat stomach (converted)
T1 construct: The stomach was excised and flushed with ca. 1 ml of unbuffered physiological saline solution; from tissue; host or cells: isolated whole stomach of immature rats (ca. 21 days old)
T1 sequence (P30553 1-452): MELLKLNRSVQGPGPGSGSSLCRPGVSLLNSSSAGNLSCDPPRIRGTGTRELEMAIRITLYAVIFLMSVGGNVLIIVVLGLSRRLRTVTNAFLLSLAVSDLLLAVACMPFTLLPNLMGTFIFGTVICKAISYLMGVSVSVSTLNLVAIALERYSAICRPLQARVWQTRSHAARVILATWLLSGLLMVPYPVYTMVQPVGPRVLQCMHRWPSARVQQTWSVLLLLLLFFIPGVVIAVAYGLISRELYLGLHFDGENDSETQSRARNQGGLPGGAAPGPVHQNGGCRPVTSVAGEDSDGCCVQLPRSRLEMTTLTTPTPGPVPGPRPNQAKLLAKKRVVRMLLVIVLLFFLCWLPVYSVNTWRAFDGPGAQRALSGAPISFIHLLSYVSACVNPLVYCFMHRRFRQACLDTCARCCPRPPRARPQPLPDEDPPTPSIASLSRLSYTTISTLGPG
Description: The compounds of the examples were tested for gastrin (CCK2) antagonist activity in an immature rat stomach assay. The procedure was as follows:
The oesophagus of immature rats (33-50 g, ca. 21 days old) was ligated at the level of the cardiac sphincter and the duodenal sphincter was cannulated. The stomach was excised and flushed with ca. 1 ml of unbuffered physiological saline solution. The fundus was punctured and cannulated. A further 4-5 ml of unbuffered solution was flushed through the stomach to ensure the preparation was not leaking. […] The stomach was continuously perfused at a rate of 1 ml min^−1 with unbuffered solution gassed with 100% O2 with the perfusate passing over an internally referenced pH-electrode fixed 12 cm above the stomach.
After 120 min of stabilisation the drugs were added directly to the serosal solution in the organ bath and after a further 60 min cumulative pentagastrin dose-response curves were started.

| Kb | SMILES |
| --- | --- |
| 52.5 nM | CC(=O)N(CC(=O)O)c1cccc(NC(=O)CN2N=C(C3CCCCC3)c3ccccc3N(CC(=O)C(C)(C)C)C2=O)c1 [Example 65, [Acetyl-(3-{2-[5-cyclohexyl-1-(3,3-dimethyl-2-oxo-butyl)-2-oxo-1,2-dihydro-3H-1,3,4-benzotriazepin-3-yl]-acetylamino}-phenyl)-amino]-acetic acid] |
| 240 nM | CNc1cccc(NC(=O)CN2N=C(c3ccccn3)c3ccccc3N(CC(=O)C(C)(C)C)C2=O)c1 [Example 5, 2-[1-(3,3-Dimethyl-2-oxo-butyl)-2-oxo-5-pyridin-2-yl-1,2-dihydro-3H-1,3,4-benzotriazepin-3-yl]-N-(3-methylamino-phenyl)-acetamide] |
| 0.575 nM | O=C(O)CSc1cccc(NC(=O)CN2N=C(C3CCCCC3)c3ccccc3N(CC(=O)C3CCCCC3)C2=O)c1 [Example 100, (3-{2-[5-Cyclohexyl-1-(2-cyclohexyl-2-oxo-ethyl)-2-oxo-1,2-dihydro-3H-1,3,4-benzotriazepin-3-yl]-acetylamino}-phenylsulfanyl)-acetic acid] |
| 3.8 nM | CC(C)(C)C(=O)CN1C(=O)N(CC(=O)Nc2cccc(CSCC(=O)O)c2)N=C(C2CCCCC2)c2ccccc21 [Example 71, (3-{2-[5-Cyclohexyl-1-(3,3-dimethyl-2-oxo-butyl)-2-oxo-1,2-dihydro-3H-1,3,4-benzotriazepin-3-yl]-acetylamino}-benzylsulfanyl)-acetic acid] |
| 4.17 nM | CC(C)(C)C(=O)CN1C(=O)N(CC(=O)Nc2cccc(-c3nc(C(=O)O)co3)c2)N=C(C2CCCCC2)c2ccccc21 [Example 144, 2-(3-{2-[5-Cyclohexyl-1-(3,3-dimethyl-2-oxo-butyl)-2-oxo-1,2-dihydro-3H-1,3,4-benzotriazepin-3-yl]-acetylamino}-phenyl)-oxazole-4-carboxylic acid] |
| 871 nM | CC(C)(C)C(=O)CN1C(=O)N(CC(=O)Nc2cccc(-n3ccnc3)c2)N=C(C2CCCCC2)c2ccccc21 [Example 89, 2-[5-Cyclohexyl-1-(3,3-dimethyl-2-oxo-butyl)-2-oxo-1,2-dihydro-3H-1,3,4-benzotriazepin-3-yl]-N-[3-(1H-imidazol-1-yl)-phenyl]-acetamide] |
| 50.1 nM | CNc1cccc(NC(=O)CN2N=C(c3ccccn3)c3ccccc3N(CC(=O)c3ccccc3C)C2=O)c1 [Example 7, N-(3-Methylamino-phenyl)-2-[2-oxo-1-(2-oxo-2-o-tolyl-ethyl)-5-pyridin-2-yl-1,2-dihydro-3H-1,3,4-benzotriazepin-3-yl]-acetamide] |
| 17 nM | CC(C)(C)C(=O)CN1C(=O)N(CC(=O)Nc2cccc(C(=O)O)c2)N=C(C23CC4CC(CC(C4)C2)C3)c2ccccc21 [Example 54, 3-{2-[5-Adamantan-1-yl-1-(3,3-dimethyl-2-oxo-butyl)2-oxo-1,2-dihydro-3H-1,3,4-benzotriazepin-3-yl]-acetylamino}-benzoic acid] |
| 32.4 nM | CC(C)(C)C(=O)CN1C(=O)N(CC(=O)Nc2cccc(NCC(=O)O)c2)N=C(C2CCCCC2)c2ccccc21 [Example 52] |
| 8.32 nM | CC(C)(C)C(=O)CN1C(=O)N(CC(=O)Nc2cccc(/C=C3\SC(=O)NC3=O)c2)N=C(C2CCCCC2)c2ccccc21 [Example 147, 2-[5-Cyclohexyl-1-(3,3-dimethyl-2-oxo-butyl)-2-oxo-1,2-dihydro-3H-1,3,4-benzotriazepin-3-yl]-N-[3-(2,4-dioxo-thiazolidin-5-ylidenemethyl)-phenyl]-acetamide] |
| 3.24 nM | CC(C)(C)C(=O)CN1C(=O)N(CC(=O)Nc2cccc(-c3ccccc3C(=O)O)c2)N=C(C2CCCCC2)c2ccccc21 [Example 154, 3′-{2-[5-Cyclohexyl-1-(3,3-dimethyl-2-oxo-butyl)-2-oxo-1,2-dihydro-3H-1,3,4-benzotriazepin-3-yl]-acetylamino}-biphenyl-2-carboxylic acid] |
| 44.7 nM | CNc1cc(NC)cc(NC(=O)CN2N=C(C3CCCCC3)c3ccccc3N(CC(=O)C(C)(C)C)C2=O)c1 [Example 104, N-(3,5-Bis-methylamino-phenyl)-2-[5-cyclohexyl-1-(3,3-dimethyl-2-oxo-butyl)-2-oxo-1,2-dihydro-3H-1,3,4-benzotriazepin-3-yl]-acetamide] |
| 263 nM | CNc1cccc(NC(=O)CN2N=C(C3CCCCC3)c3ccccc3N(CC(=O)N3CCN(C)CC3)C2=O)c1 [Example 72, 2-{5-Cyclohexyl-1-[2-(4-methyl-piperazin-1-yl)-2-oxo-ethyl]-2-oxo-1,2-dihydro-3H-1,3,4-benzotriazepin-3-yl}-N-(3-methylamino-phenyl)-acetamide] |
| 3.98 nM | CC1CCC(C2=NN(CC(=O)Nc3cccc(CC(=O)O)c3)C(=O)N(CC(=O)C(C)(C)C)c3ccccc32)CC1 (centres unmarked) [Example 103, (3-{2-[1-(3,3-Dimethyl-2-oxo-butyl)-5-(4-methyl-cyclohexyl)-2-oxo-1,2-dihydro-3H-1,3,4-benzotriazepin-3-yl]-acetylamino}-phenyl)-acetic acid] |
| 74.1 nM | CC(C)(C)C(=O)CN1C(=O)N(CC(=O)Nc2cccc(NC(=O)CCC(=O)O)c2)N=C(C2CCCCC2)c2ccccc21 [Example 66, N-(3-{2-[5-Cyclohexyl-1-(3,3-dimethyl-2-oxo-butyl)-2-oxo-1,2-dihydro-3H-1,3,4-benzotriazepin-3-yl]-acetylamino}-phenyl)-succinamic acid] |
| 100 nM | CC(C)(C)C(=O)CN1C(=O)N(CC(=O)Nc2cccc(CSC(=N)N)c2)N=C(C2CCCCC2)c2ccccc21 [Example 49, N-(3-Carbamimidoylsulfanylmethyl-phenyl)-2-[5-cyclohexyl-1-(3,3-dimethyl-2-oxo-butyl)-2-oxo-1,2-dihydro-3H-1,3,4-benzotriazepin-3-yl]-acetamide] |
| 75.9 nM | CC(C)(C)C(=O)CN1C(=O)N(CC(=O)Nc2cccc(C(=O)O)c2)N=C(C2CCCC2)c2ccccc21 [Example 9, 3-{2-[5-Cyclopentyl-1-(3,3-dimethyl-2-oxo-butyl)-2-oxo-1,2-dihydro-3H-1,3,4-benzotriazepin-3-yl]-acetylamino}-benzoic acid] |
| 35.5 nM | Cc1cccc2c1C(C1CCCCC1)=NN(CC(=O)Nc1cccc(C(=O)O)c1)C(=O)N2CC(=O)C(C)(C)C [Example 114, 3-{2-[5-Cyclohexyl-1-(3,3-dimethyl-2-oxo-butyl)-6-methyl-2-oxo-1,2-dihydro-3H-1,3,4-benzotriazepin-3-yl]-acetylamino}-benzoic acid] |
| 22.9 nM | CC(C)(C)C(=O)CN1C(=O)N(CC(=O)Nc2cccc(C(=O)NS(C)(=O)=O)c2)N=C(C2CCCCC2)c2ccccc21 [Example 40] |
| 372 nM | CNc1cc(NC(=O)CN2N=C(C3CCCCC3)c3ccccc3N(CC(=O)C(C)(C)C)C2=O)cc(C(=O)OC)c1 [Example 74, 3-{2-[5-Cyclohexyl-1-(3,3-dimethyl-2-oxo-butyl)-2-oxo-1,2-dihydro-3H-1,3,4-benzotriazepin-3-yl]-acetylamino}-5-methylamino-benzoic acid methyl ester] |
| 132 nM | CNc1cccc(NC(=O)CN2N=C(c3ccccc3)c3ccccc3N(CC(=O)C(C)(C)C)C2=O)c1 [Example 4, 2-[1-(3,3-Dimethyl-2-oxo-butyl)-2-oxo-5-phenyl-1,2-dihydro-3H-1,3,4-benzotriazepin-3-yl]-N-(3-methylamino-phenyl)-acetamide] |
| 7.08 nM | CC(C)(C)C(=O)CN1C(=O)N(CC(=O)Nc2cccc(-c3ccc(C(=O)O)cc3)c2)N=C(C2CCCCC2)c2ccccc21 [Example 146, 3′-{2-[5-Cyclohexyl-1-(3,3-dimethyl-2-oxo-butyl)-2-oxo-1,2-dihydro-3H-1,3,4-benzotriazepin-3-yl]-acetylamino}-biphenyl-4-carboxylic acid] |
| 1.26 nM | O=C(O)CCCc1cccc(NC(=O)CN2N=C(C3CCCCC3)c3ccccc3N(CC(=O)C3CCCC3)C2=O)c1 [Example 159] |
| 42.7 nM | CC(C)CCN1C(=O)N(CC(=O)Nc2cccc(C(=O)O)c2)N=C(C2CCCCC2)c2ccccc21 [Example 16, 3-{2-[5-Cyclohexyl-1-(3-methyl-butyl)-2-oxo-1,2-dihydro-3H-1,3,4-benzotriazepin-3-yl]-acetylamino}-benzoic acid] |
| 110 nM | CC(C)(C)C(=O)CN1C(=O)N(CC(=O)Nc2cccc(N3CCCC3C(=O)O)c2)N=C(C2CCCCC2)c2ccccc21 (stereo in doubt) [Example 76, (R)-]-(3-{2-[5-Cyclohexyl-1-(3,3-dimethyl-2-oxobutyl)-2-oxo-1,2-dihydro-3H-1,3,4-benzotriazepin-3-yl]-acetylamino}-phenyl)-pyrrolidine-2-carboxylic acid] |

| SMILES | Kb |
| --- | --- |
| O=C(O)Cn1ccc2ccc(NC(=O)CN3N=C(C4CCCCC4)c4ccccc4N(CC(=O)C4CCCC4)C3=O)cc21 [Example 126, (6-{2-[5-Cyclohexyl-1-(2-cyclopentyl-2-oxo-ethyl)-2-oxo-1,2-dihydro-3H-1,3,4-benzotriazepin-3-yl]-acetylamino}-indol-1-yl)-acetic acid] | 0.0575 nM |

— patent US20050026911A1, “Benzotriazapinone salts and methods for using same” (priority 2003, published 2005)
